In assay [1] the target is T1, Cathepsin L (Rattus norvegicus, UniProt P07154).
T1 construct: extracted from a rat liver and completely purified; from tissue; host or cells: rat liver
Nature of the assay: Determination of inhibition activity against cathepsin L (substrate Z-Phe-Arg-MCA). In kind it is biochemical. Particulars: cathepsin L purified from rat liver, pH 5.5, 30° C., 10 minutes. The procedure:
(§1) Determination of inhibition activity against cathepsin L and cathepsin B:
Cathepsin L that extracted from a rat liver and completely purified in accordance with the method described in J. Biochem., 84, 650-671 (1978) was used, and as a substrate thereof, Z-Phe-Arg-MCA was used.
(§2) Each cathepsin was diluted with a diluent (0.1% Brij 35) to adjust its concentration to 0.3 U (0.1 U: a concentration at which 1.0 nmol of MCA is released per minute at 37° C.). An activator/buffer (340 mM sodium acetate, 60 mM acetic acid, 4 mM disodium EDTA; pH 5.5; 250 μl) was added to the solution (500 μl). After the mixture was incubated for 1 minute at 30° C., a specimen solution of the predetermined concentration and a substrate solution ([…]) were added to conduct a reaction for 10 minutes. The reaction was stopped with a reaction terminator (100 mM sodium monochloroacetate, […] sodium acetate, […] acetic acid; pH 4.3; 1 ml) to determine the fluorescence intensity of aminomethylcoumarin isolated under fluorescence 460 nm in wavelength obtained by excitation at a wavelength of 370 nm using a fluorometer.

In assay [2] the target is T2, Cathepsin B (Rattus norvegicus, UniProt P00787).
T2 construct: extracted from a rat liver and completely purified; from tissue; host or cells: rat liver
The experiment in a line: Determination of inhibition activity against cathepsin B (substrate Z-Arg-Arg-MCA). In kind it is biochemical. Particulars: cathepsin B purified from rat liver, pH 5.5, 30° C., 10 minutes. The method, then:
as §1
One that extracted from a rat liver and completely purified in accordance with the method described in Biochem. Biophys. Res. Commun., 83, 513-520 (1978) was used as cathepsin B, and as a substrate thereof, Z-Arg-Arg-MCA was used.
as §2

SMILES strings stand for the structures. Structures can show the parent of a compound that is named as a salt.

T2 sequence (P00787 80-126 limits assumed): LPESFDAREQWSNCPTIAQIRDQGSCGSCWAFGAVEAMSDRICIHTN
T2 sequence (P00787 129-333 limits assumed): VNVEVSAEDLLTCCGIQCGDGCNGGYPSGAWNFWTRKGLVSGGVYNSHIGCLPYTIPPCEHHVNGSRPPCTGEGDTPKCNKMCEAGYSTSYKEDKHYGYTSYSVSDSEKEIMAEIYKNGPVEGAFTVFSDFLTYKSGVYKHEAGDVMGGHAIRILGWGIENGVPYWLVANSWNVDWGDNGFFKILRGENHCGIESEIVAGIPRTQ
T1 sequence (P07154 114-288 limits assumed): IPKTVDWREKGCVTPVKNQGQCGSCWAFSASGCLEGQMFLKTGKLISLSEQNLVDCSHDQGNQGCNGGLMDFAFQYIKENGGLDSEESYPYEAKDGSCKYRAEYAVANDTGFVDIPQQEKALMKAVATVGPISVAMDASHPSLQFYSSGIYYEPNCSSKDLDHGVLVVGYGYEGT
T1 sequence (P07154 291-334 limits assumed): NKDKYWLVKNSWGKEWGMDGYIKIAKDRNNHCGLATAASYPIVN

As for `CN(C)C(=O)[C@H](Cc1ccccc1)NC(=O)[C@H]1O[C@@H]1C(=O)Nc1cccc(CN)c1` [Compound 6, N-{L-3-trans-[3-(Aminomethyl)phenylcarbamoyl]oxirane-2-carbonyl}-L-phenylalanine dimethylamide hydrochloride], the half-maximal inhibitory concentration (IC50) in assay [1] is 200 nM; in assay [2] it was over 100000 nM.

In the case of `CN(C)C(=O)[C@H](Cc1ccccc1)NC(=O)[C@H]1O[C@@H]1C(=O)Nc1ccc(CN)cc1` [Compound 8, N-{L-3-trans-[4-(Aminomethyl)phenylcarbamoyl]oxirane-2-carbonyl}-L-phenylalanine dimethylamide hydrochloride], the concentration for half-maximal inhibition (IC50) in assay [1] was under 100 nM; in assay [2] it was over 100000 nM.

`CN(C)C(=O)[C@H](Cc1ccccc1)NC(=O)[C@H]1O[C@@H]1C(=O)N1CCN(Cc2ccccc2)CC1` [Compound 9, N-[L-3-trans-(4-Benzylpiperazin-1-yl-carbonyl)oxirane-2-carbonyl]-L-phenylalanine dimethylamide]: the concentration for half-maximal inhibition (IC50) was 850 nM in assay [1] and over 100000 nM in assay [2].

With `CN(C)C(=O)[C@H](Cc1ccccc1)NC(=O)[C@H]1O[C@@H]1C(=O)N(CCN)c1ccccc1` [Compound 11, N-{L-3-trans-[N-(2-Aminoethyl)-N-phenylcarbamoyl]oxirane-2-carbonyl}-L-phenylalanine dimethylamide hydrochloride], half-maximal inhibition in assay [1] (IC50) required 2400 nM. The “IC50 (M) Cathepsin B” value in assay [2] is reported as “No inhibition”.

With `CC(C)(C)OC(=O)NCc1ccc(NC(=O)[C@H]2O[C@@H]2C(=O)N[C@@H](Cc2ccccc2)C(=O)NCCc2ccccc2)cc1` [Compound 12, N-{L-3-trans-[4-(t-Butoxycarbonylaminomethyl)phenylcarbamoyl]oxirane-2-carbonyl}-L-phenylalanine-2-phenylethylamide], the concentration for half-maximal inhibition (IC50) is 2.5 nM in assay [1] and over 10000 nM in assay [2].

For the compound `CN(C)C(=O)[C@H](Cc1ccccc1)NC(=O)[C@H]1O[C@@H]1C(=O)N1CCN(C(=O)OC(C)(C)C)CC1` [Compound 15, N-[L-3-trans-(4-t-Butoxycarbonylpiperazin-1-yl-carbonyl)-oxirane-2-carbonyl]-L-phenylalanine dimethylamide], the concentration for half-maximal inhibition (IC50) is 220 nM in assay [1] and over 100000 nM in assay [2].

As for `CN(C)C(=O)[C@H](Cc1ccccc1)NC(=O)[C@H]1O[C@@H]1C(=O)NC1CCN(Cc2ccccc2)CC1` [Compound 18, N-{L-3-trans-[(1-Benzylpiperidin-4-yl)carbamoyl]oxirane-2-carbonyl}-L-phenylalanine dimethylamide hydrochloride], the results for the IC50 in assay [1] and in assay [2] were 290 nM and over 100000 nM, respectively.

For `CN(C)C(=O)[C@H](Cc1ccccc1)NC(=O)[C@H]1O[C@@H]1C(=O)NCc1ccc(N)cc1` [Compound 20, N-[L-3-trans-(4-Aminobenzylcarbamoyl)oxirane-2-carbonyl]-L-phenylalanine dimethylamide hydrochloride], the IC50 in assay [1] is 670 nM; in assay [2], over 100000 nM.

As to `CN(C)C(=O)[C@H](Cc1ccccc1)NC(=O)[C@H]1O[C@@H]1C(=O)NCCNC(=O)OCc1ccccc1` [Compound 22, N-{L-3-trans-[2-(Benzyloxycarbonylamino)ethylcarbamoyl]oxirane-2-carbonyl}-L-phenylalanine dimethylamide], the half-inhibitory concentration (IC50) is 470 nM in assay [1] and over 100000 nM in assay [2].

For `CCc1ccc(NC(=O)[C@H]2O[C@@H]2C(=O)N[C@@H](Cc2ccccc2)C(=O)N(C)C)cc1` [Compound 29, N-[L-3-trans-(4-Ethylphenylcarbamoyl)oxirane-2-carbonyl]-L-phenylalanine dimethylamide], the values for the half-maximal inhibitory concentration (IC50) in assay [1] and in assay [2] were 2.2 nM and over 100000 nM, respectively.

On to `CN(C)C(=O)[C@H](Cc1ccccc1)NC(=O)[C@H]1O[C@@H]1C(=O)Nc1ccc(C(C)(C)C)cc1` [Compound 37, N-[L-3-trans-(4-t-Butylphenylcarbamoyl)oxirane-2-carbonyl]-L-phenylalanine dimethylamide], for which the IC50 in assay [1] is 45 nM; in assay [2], over 100000 nM.

For the compound `CN(C)C(=O)[C@H](Cc1ccccc1)NC(=O)[C@H]1O[C@@H]1C(=O)NCCc1csc(N)n1` [Compound 39, N-{L-3-trans-[2-(2-Aminothiazol-4-yl)ethylcarbamoyl]oxirane-2-carbonyl}-L-phenylalanine dimethylamide hydrochloride], the concentration for half-maximal inhibition (IC50) in assay [1] is 350 nM; in assay [2], over 100000 nM.

On to `Cc1cc(NC(=O)[C@H]2O[C@@H]2C(=O)N[C@@H](Cc2ccccc2)C(=O)N(C)C)no1` [Compound 41], for which the results for the IC50 in assay [1] and in assay [2] were 33 nM and over 10000 nM, respectively.

For `CN(C)C(=O)[C@H](Cc1ccccc1)NC(=O)[C@H]1O[C@@H]1C(=O)Nc1ccc(CNC(=O)c2ccccc2)cc1` [Compound 44, N-{L-3-trans-[4-(Benzoylaminomethyl)phenylcarbamoyl]oxirane-2-carbonyl}-L-phenylalanine dimethylamide], the half-maximal inhibitory concentration (IC50) was 6 nM in assay [1] and 77000 nM in assay [2].

Consider `CN(C)C(=O)[C@H](Cc1ccccc1)NC(=O)[C@H]1O[C@@H]1C(=O)NCCNc1ccc([N+](=O)[O-])cn1` [Compound 46, N-{L-3-trans-[2-(5-Nitropyridin-2-yl)aminoethylcarbamoyl]oxirane-2-carbonyl}-L-phenylalanine dimethylamide], for which the IC50 in assay [1] was found to be 34 nM; in assay [2], 85000 nM.

`CN(C)C(=O)[C@H](Cc1ccccc1)NC(=O)[C@H]1O[C@@H]1C(=O)Nc1ccc(Oc2ccccc2)cc1` [Compound 48, N-[L-3-trans-(4-Phenoxyphenylcarbamoyl)oxirane-2-carbonyl]-L-phenylalanine dimethylamide]: the values for the half-inhibitory concentration (IC50) in assay [1] and in assay [2] were 60 nM and 45000 nM, respectively.

On to `CN(C)C(=O)[C@H](Cc1ccccc1)NC(=O)[C@H]1O[C@@H]1C(=O)NCCc1ccccn1` [Compound 56, N-{L-3-trans-[2-(Pyridin-2-yl)ethylcarbamoyl]oxirane-2-carbonyl}-L-phenylalanine dimethylamide], for which the IC50 is 47 nM in assay [1] and over 10000 nM in assay [2].

On to `CNC(=O)[C@H](Cc1ccccc1)NC(=O)[C@H]1O[C@@H]1C(=O)NCCc1ccccn1` [Compound 62, N-{L-3-trans-[2-(Pyridin-2-yl)ethylcarbamoyl]oxirane-2-carbonyl}-L-phenylalanine methylamide], for which the figures for the half-inhibitory concentration (IC50) in assay [1] and in assay [2] were under 1 nM and over 100000 nM, respectively.

As for `CN(C)C(=O)[C@H](Cc1ccccc1)NC(=O)[C@H]1O[C@@H]1C(=O)NCCc1ccc(N)cc1` [Compound 73, N-{L-3-trans-[2-(4-Aminophenyl)ethylcarbamoyl]oxirane-2-carbonyl}-L-phenylalanine dimethylamide], 94 nM corresponded to half-maximal inhibition in assay [1] (IC50). Further, the “IC50 (M) Cathepsin B” value in assay [2] is “No inhibition”.

Regarding `CN(C)C(=O)[C@H](Cc1ccccc1)NC(=O)[C@H]1O[C@@H]1C(=O)NCCc1ccc(N)cn1` [Compound 77, N-{L-3-trans-[2-(5-Aminopyridin-2-yl)ethylcarbamoyl]oxirane-2-carbonyl}-L-phenylalanine dimethylamide], the results for the 50% inhibitory concentration (IC50) in assay [1] and in assay [2] were 82 nM and over 10000 nM, respectively.

Turning to `CC(=N)Nc1ccc(CCNC(=O)[C@H]2O[C@@H]2C(=O)N[C@@H](Cc2ccccc2)C(=O)N(C)C)cc1` [Compound 86, N-{L-3-trans-[2-(4-Acetoamidinophenyl)ethylcarbamoyl]oxirane-2-carbonyl}-L-phenylalanine dimethylamide hydrobromide], the IC50 was 46 nM in assay [1] and over 10000 nM in assay [2].

Regarding `CN(C)C(=O)[C@H](Cc1ccccc1)NC(=O)[C@H]1O[C@@H]1C(=O)N1CCN(c2nccc(N)n2)CC1` [Compound 90], the results for the concentration for half-maximal inhibition (IC50) in assay [1] and in assay [2] were 97 nM and over 10000 nM, respectively.

Values taken from patent US6110967A, “Epoxysuccinamide derivative or salt thereof” (Taiho Pharmaceuticals Co., Ltd., priority 1997, dated 2000).
